Source: patent US8343475B2, “Small cationic antimicrobial peptides” (priority 2006, dated 2013)

Key:
Assay in all cases: Chemokine induction in PBMC (capture ELISA)
Assay type in all cases: cell-based
[1] = test system: MCP-1 release by human PBMC; details: background (204) subtracted
Method: FIG. 15. Induction of MCP-1 release by 7.5×10^5 human PBMC in response to treatment with 20 or 100 μg/ml of different peptides for 24 hours.
(§1) Venous blood (20 ml) from healthy volunteers was collected in Vacutainer® collection tubes containing sodium heparin as an anticoagulant (Becton Dickinson, Mississauga, ON) in accordance with UBC ethical approval and guidelines. Blood was diluted 1:1 with complete RPMI 1640 medium and separated by centrifugation over a Ficoll-Paque® Plus (Amersham Biosciences, Piscataway, N.J., USA) density gradient. White blood cells were isolated from the buffy coat, washed twice in RPMI 1640 complete medium, and the number of peripheral blood mononuclear cells (PBMC) was determined by trypan blue exclusion. PBMC (5×10^5) were seeded into 12-well tissue culture dishes (Falcon; Becton Dickinson) at 0.75 to 1×10^6 cells/ml at 37° C. in 5% CO2. The above conditions were chosen to mimic conditions for circulating blood monocytes entering tissues at the site of infection via extravasation.
(§2) Following incubation of the cells under various treatment regimens, the tissue culture supernatants were centrifuged at 1000×g for 5 min, then at 10,000×g for 2 min to obtain cell-free samples. Supernatants were aliquoted and then stored at −20° C. prior to assay for various chemokines by capture ELISA (eBioscience and BioSource International Inc., CA, USA respectively)

[2] = test system: MCP-3 release by human PBMC; details: background (6) subtracted
Method: FIG. 16. Induction of MCP3 release by 7.5×10^5 human PBMC in response to treatment with 20 or 100 μg/ml of different peptides for 24 hours.
as §1, §2

[3] = test system: CXCL1 (Gro-α) release by human PBMC; details: background (196) subtracted
Method: FIG. 17. Induction of CXCL1 (Gro-α) release by 7.5×10^5 human PBMC in response to treatment with 20 or 100 μg/ml of different peptides for 24 hours.
as §1, §2

Substance | Chemokine induction MCP-1 ([1]; 20 μg/ml peptide) [pg/mL] | Chemokine induction MCP-1 ([1]; 100 μg/ml peptide) [pg/mL] | Chemokine induction MCP-3 ([2]; 20 μg/ml peptide) [pg/mL] | Chemokine induction MCP-3 ([2]; 100 μg/ml peptide) [pg/mL] | Chemokine induction Gro-α ([3]; 20 μg/ml peptide) [pg/mL] | Chemokine induction Gro-α ([3]; 100 μg/ml peptide) [pg/mL]
1003 (IVWKIKRWWVGR) [compound 1003] | 31 | 1361 | 0 | 5 | 65 | 170
1004 (RFWKVRVKYIRF) [compound 1004] | 300 | 1680 | 1 | 30 | 55 | 336
1007 (WNRVKWIRR) [compound 1007] | 103 | 247 | 7 | 28 | 65 | 170
1008 (RIKWIVRFR) [compound 1008] | 633 | 1775 | 1 | 22 | 109 | 869
1009 (AIRVVRARLVRR) [compound 1009] | 634 | 1093 | 6 | 6 | 230 | 377
1011 (RRWVVWRIVQRR) [compound 1011] | 579 | 2282 | 1 | 35 | 46 | 308
1014 (RQVIVRRW) [compound 1014] | 83 | 175 | 0 | 1 | 6 | 15
1015 (VLIRWNGKK) [compound 1015] | 113 | 644 | 0 | 10 | 42 | 178
1016 (LRIRWIFKR) [compound 1016] | 269 | 819 | 1 | 27 | 26 | 247
1017 (KRIVRRLVARIV) [compound 1017] | 585 | 1019 | 0 | 0 | 56 | 250
1019 (IVVWRRQLVKNK) [compound 1019] | 27 | 438 | 0 | 0 | 5 | 43
1021 (VRLRIRVAV) [compound 1021] | 158 | 276 | 3 | 10 | 29 | 112
1022 (LRIRVIVWR) [compound 1022] | 52 | 983 | 0 | 1 | 10 | 64
1023 (IRVWVLRQR) [compound 1023] | 250 | 712 | 0 | 1 | 36 | 38
1024 (RIRVIVLKK) [compound 1024] | 285 | 81 | 1 | 0 | 20 | -21
